Publication PMC12030043, “Preparation and Therapeutic Evaluation of Engineered Semaglutide and Statin–Lipid Conjugate-Based Nanoparticle” (Pharmaceutics, 2025)

Legend:
[1] = Zeta potential measurement; type: physicochemical; details: Zetasizer Nano; RLC alone and semaglutide–RLC (1:10) formulation; mean ± S.D.
Method: (§1) To determine the optimal formulation and final composition of the semaglutide–RLC nanoparticles (SRLC NPs), a precipitation evaluation experiment was conducted using various mass ratios (1:10, 1:20, 1:30, w/w) of semaglutide to RLC. Based on stability and particle size analysis, the 1:10 ratio was selected as the optimal formulation, and this ratio was maintained in the final product composition to ensure consistency in therapeutic efficacy and physicochemical properties. The resulting mixture was used immediately without undergoing a separate freeze-drying process. For nanoparticle preparation, semaglutide ([…]) was dissolved in 1 mL of DW, while RLC ([…]) was dissolved in 1 mL of DMSO. […] The stability of each formulation was assessed by measuring particle size at multiple time points (0, 0.5, 1, 2, 3, 4, and 5 days) using dynamic light scattering (DLS; Zetasizer Nano, Malvern Instruments, Worcestershire, UK). The zeta potential of both RLC alone and the semaglutide–RLC (1:10) formulation was also measured to evaluate the surface charge and colloidal stability of the nanoparticles. Additionally, in vivo stability was evaluated by preparing 1 mL of Dulbecco’s phosphate-buffered saline (DPBS) containing 10% fetal bovine serum (FBS) and 5% DMSO, followed by particle size measurements at different time points (0, 0.5, 1, and 2 days). […]

fibroblast cells = assay: Cytotoxicity assay in fibroblast cells (EZ-Cytox); type: cell-based; details: 100 µg/mL, 24 h, absorbance 450 nm/600 nm, relative to untreated control, mean ± S.D., n = 5
Method: The cytotoxicity of the RLC and SRLC nanoparticles was evaluated using fibroblast cells obtained from the Korean Cell Line Bank (Seoul, Republic of Korea). The fibroblast cells were cultured in high-glucose Dulbecco’s modified Eagle’s medium (DMEM) supplemented with 10% (v/v) fetal bovine serum (FBS) and 1% antibiotic–antimycotic solution. The cells were then seeded into a 96-well culture plate at a density of 1.0 × 10^4 cells per well and incubated for 1 h at 37 °C in a humidified atmosphere containing 5% CO2 to allow stabilization. Following stabilization, the cells were treated with RLC and SRLC nanoparticles at concentrations ranging from 0.1 to 100 […] for 24 h. Cell viability (n = 5) was evaluated using the EZ-Cytox cell viability assay kit, with absorbance readings taken at 450 nm and 600 nm using a microplate reader (SPECTROstar Nano, BMG LABTECH, Ortenberg, Germany). The viability of the treated cells was determined by comparing the UV absorbance values of the samples to those of the untreated control group.
To evaluate the cytotoxic effects of SRLC NPs, a cytotoxicity assay was performed using fibroblast cells at concentrations ranging from 0.1 to 100 µg/mL (Figure 6A).

[2] = Particle size by dynamic light scattering (DLS) in aqueous solution; type: physicochemical; details: 1 mL distilled water containing 5% DMSO, semaglutide fixed at 0.1 mg, semaglutide alone 0.1 mg/mL, RLC alone 1 mg/mL, mean ± S.D., n = 3
Method: as §1

[3] = test system: high-fat diet (HFD)-fed mouse model; assay: Histopathology (H&E and oil red O staining) of liver and adipose tissue in HFD-fed mice; type: in vivo, C57BL/6 mice; details: for lipid staining and fat droplet accumulation in liver tissue (in words): H&E and ORO staining; for lipid staining and fat droplet accumulation in liver tissue (in words) / quantification of ORO staining: RO 0.5, RLC 1, SRLC NPs 1.1 mg/kg s.c.; for diameter of the adipocyte in sWAT: HFD group 60.32 ± 6.95 µm; for diameter of the adipocyte in sWAT / diameter of the adipocyte in eWAT: n = 7; for diameter of the adipocyte in eWAT: HFD group 64.12 ± 12.51 µm; for area of the adipocyte in sWAT: HFD group 78.86 ± 1.38%; for quantification of ORO staining: liver tissue, HFD group = 100.00 ± 15.00%
Method: All animal experiments were conducted under the standard regulations of the Institutional Animal Care and Use Committee (IACUC) at Konkuk University (ref. no. KU22078-1). The animals were housed in a controlled environment with regulated temperature and humidity, maintained under a 12 h light–dark cycle. Obesity was induced in 5-week-old male C57BL/6 mice through dietary control for 69 days. A total of 25 mice were used and divided into five experimental groups: negative control (regular diet, RD), positive control (high-fat diet, HFD), RO (0.5 mg/kg), RLC (1 mg/kg), and SRLC NPs (1.1 mg/kg). The RO dose was set at half that of RLC due to its molecular weight being approximately twice that of RLC, ensuring equivalent molar exposure. Additionally, the SRLC NP dose was adjusted to 1.1 mg/kg as it comprised 1 mg of RLC and 0.1 mg of semaglutide, allowing for the accurate comparison of therapeutic effects. While the RD group received a normal diet, the other groups were fed a high-fat diet (HFD) consisting of 60 kcal% fat (D12492, Research Diets, New Brunswick, NJ, USA). The body weights of the mice were measured weekly. Starting from day 28 of the dietary intervention, each group received their respective substances via subcutaneous injection every three days. Five days before the end of the experiment, an oral glucose tolerance test (OGTT) was conducted to assess glucose sensitivity. After 19 h of fasting, all experimental groups were administered a glucose solution orally (2 g/kg). Blood glucose levels were then measured at time intervals of 0, 15, 30, 60, 90, 120, and 180 min (n = 3). Blood glucose levels were assessed using a glucometer (G CARE, GC Medical Science, Yongin, Republic of Korea). On the final day of the experiment, after 14 h of fasting, the mice were anesthetized via intraperitoneal administration of 2,2,2-tribromoethanol (TBE), and blood samples were collected. Hepatotoxicity and lipid profiling analyses were conducted using the collected blood samples, while liver tissues were subjected to hematoxylin and eosin (H&E) and oil red O (ORO) staining for further evaluation. All analyses were performed by KP&T Technology (Cheongju, Republic of Korea).
Representative images of mice from the HFD group and the SRLC NPs-treated group on the final day of the experiment are shown in Figure 9A. To evaluate the pathological changes at the tissue level and the therapeutic effects of SRLC NPs, hematoxylin and eosin (H&E) staining and oil red O (ORO) staining were performed (Figure 9B). These staining analyses were conducted to confirm the reduction in hepatic fat accumulation and assess adipose tissue remodeling following SRLC NPs treatment. […] The area of the adipocyte in sWAT (n = 4) was as follows: HFD, 78.86 ± 1.38%; RO, 77.51 ± 2.52%; RLC, 72.72 ± 2.75%; and SRLC NPs, 47.45 ± 1.03% (Figure 9E). The diameter of the adipocyte in eWAT (n = 7) was the following: HFD, 64.12 ± 12.51 µm; RO, 59.53 ± 6.42 µm; RLC, 57.01 ± 7.04 µm; and SRLC NPs, 33.79 ± 3.62 µm (Figure 9F). The area of the adipocyte in eWAT (n = 4) was as follows: HFD, 76.44 ± 1.91%; RO, 79.30 ± 1.91%; RLC, 79.223 ± 1.53%; and SRLC NPs, 63.28 ± 2.94% (Figure 9G).

[4] = test system: high-fat diet (HFD)-fed mouse model; assay: Oral glucose tolerance test (OGTT) in HFD-fed mice; type: in vivo, C57BL/6 mice; details: day 64, 19 h fasting, oral glucose 2 g/kg, 0-180 min, glucometer, n = 3; RO 0.5 mg/kg, RLC 1 mg/kg, SRLC NPs 1.1 mg/kg s.c.
Method: (§2) All animal experiments were conducted under the standard regulations of the Institutional Animal Care and Use Committee (IACUC) at Konkuk University (ref. no. KU22078-1). The animals were housed in a controlled environment with regulated temperature and humidity, maintained under a 12 h light–dark cycle. Obesity was induced in 5-week-old male C57BL/6 mice through dietary control for 69 days. A total of 25 mice were used and divided into five experimental groups: negative control (regular diet, RD), positive control (high-fat diet, HFD), RO (0.5 mg/kg), RLC (1 mg/kg), and SRLC NPs (1.1 mg/kg). The RO dose was set at half that of RLC due to its molecular weight being approximately twice that of RLC, ensuring equivalent molar exposure. Additionally, the SRLC NP dose was adjusted to 1.1 mg/kg as it comprised 1 mg of RLC and 0.1 mg of semaglutide, allowing for the accurate comparison of therapeutic effects. While the RD group received a normal diet, the other groups were fed a high-fat diet (HFD) consisting of 60 kcal% fat (D12492, Research Diets, New Brunswick, NJ, USA). The body weights of the mice were measured weekly. Starting from day 28 of the dietary intervention, each group received their respective substances via subcutaneous injection every three days. […] Blood glucose levels were then measured at time intervals of 0, 15, 30, 60, 90, 120, and 180 min (n = 3).

[5] = conventional semaglutide formulations; ref [11],[12]; cited from earlier work
Source text: Obesity and non-alcoholic fatty liver disease (NAFLD) have emerged as critical health concerns in modern society, closely linked to diabetes, cardiovascular diseases, and metabolic syndrome. As one of the most rapidly increasing metabolic disorders worldwide, there is a continuous demand for the development of effective therapeutic agents and treatment strategies.

[6] = test system: high-fat diet (HFD)-fed mouse model; assay: Anti-obesity effect (body weight) in high-fat diet (HFD)-fed mouse model; type: in vivo; details: HFD-fed C57BL/6 mice, day 69, s.c. every three days from day 28; RO 0.5 mg/kg, SRLC NPs 1.1 mg/kg; mean ± S.D., n = 5
Method: as §2

zeta potential [1] | particle size [2] | SMILES | cell viability (fibroblast cells) | lipid staining and fat droplet accumulation in liver tissue (in words) [3] | diameter of the adipocyte in sWAT ([3]; H&E, mean ± S.D.) | diameter of the adipocyte in eWAT ([3]; H&E, mean ± S.D.) | area of the adipocyte in sWAT ([3]; H&E, mean ± S.D., n = 4) | quantification of ORO staining ([3]; mean ± S.D., n = 4) | blood glucose response in OGTT (in words) [4] | oral bioavailability [5] | body weight at the end of the experiment [6] | area of the adipocyte in eWAT ([3]; H&E, HFD group 76.44 ± 1.91%, mean ± S.D., n = 4)
−22.08 ± 0.48 mV | 613.30 ± 26.86 nm | CC(C)c1nc(N(C)S(C)(=O)=O)nc(-c2ccc(F)cc2)c1C=CC(O)CC(O)CC(=O)NCCNC(=O)CCC(C)C1CCC2C3C(O)CC4CC(O)CCC4(C)C3CCC12C (stereo not drawn) [RLC] | 85.60 ± 2.87% | abnormal fat droplet accumulation | 49.79 ± 7.09 µm | 57.01 ± 7.04 µm | 72.72 ± 2.75% | 49.50 ± 9.53% | sharp increase in blood glucose levels immediately after administration, followed by a gradual decline | – | – | –
– | – | CC[C@H](C)[C@H](NC(=O)[C@H](Cc1ccccc1)NC(=O)[C@H](CCC(=O)O)NC(=O)[C@H](CCCCNC(=O)COCCOCCNC(=O)COCCOCCNC(=O)CC[C@H](NC(=O)CCCCCCCCCCCCCCCCC(=O)O)C(=O)O)NC(=O)[C@H](C)NC(=O)[C@H](C)NC(=O)[C@H](CCC(N)=O)NC(=O)CNC(=O)[C@H](CCC(=O)O)NC(=O)[C@H](CC(C)C)NC(=O)[C@H](Cc1ccc(O)cc1)NC(=O)[C@H](CO)NC(=O)[C@H](CO)NC(=O)[C@@H](NC(=O)[C@H](CC(=O)O)NC(=O)[C@H](CO)NC(=O)[C@@H](NC(=O)[C@H](Cc1ccccc1)NC(=O)[C@@H](NC(=O)CNC(=O)[C@H](CCC(=O)O)NC(=O)C(C)(C)NC(=O)[C@@H](N)Cc1cnc[nH]1)[C@@H](C)O)[C@@H](C)O)C(C)C)C(=O)N[C@@H](C)C(=O)N[C@@H](Cc1c[nH]c2ccccc12)C(=O)N[C@@H](CC(C)C)C(=O)N[C@H](C(=O)N[C@@H](CCCNC(=N)N)C(=O)NCC(=O)N[C@@H](CCCNC(=N)N)C(=O)NCC(=O)O)C(C)C [semaglutide] | – | – | – | – | – | – | – | ~ 1% | – | –
– | – | CC(C)c1nc(N(C)S(C)(=O)=O)nc(-c2ccc(F)cc2)c1/C=C/[C@@H](O)C[C@@H](O)CC(=O)O [RO, Rosuvastatin calcium] | – | abnormal fat droplet accumulation | 51.20 ± 8.99 µm | 59.53 ± 6.42 µm | 77.51 ± 2.52% | 70.50 ± 8.02% | sharp increase in blood glucose levels immediately after administration, followed by a gradual decline | – | 36.20 ± 2.34 g | 79.30 ± 1.91%
